Data reported in patent US20040180819A1, “Characterization of a membrane estrogen receptor” (priority 2001, published 2004).

Key:
ERα receptor = biological target: T1, ERα receptor (Rattus norvegicus, UniProt P06211); test: Saturation binding / Scatchard analysis, D12 cytosolic (S2) fraction
T1 sequence (P06211 1-600): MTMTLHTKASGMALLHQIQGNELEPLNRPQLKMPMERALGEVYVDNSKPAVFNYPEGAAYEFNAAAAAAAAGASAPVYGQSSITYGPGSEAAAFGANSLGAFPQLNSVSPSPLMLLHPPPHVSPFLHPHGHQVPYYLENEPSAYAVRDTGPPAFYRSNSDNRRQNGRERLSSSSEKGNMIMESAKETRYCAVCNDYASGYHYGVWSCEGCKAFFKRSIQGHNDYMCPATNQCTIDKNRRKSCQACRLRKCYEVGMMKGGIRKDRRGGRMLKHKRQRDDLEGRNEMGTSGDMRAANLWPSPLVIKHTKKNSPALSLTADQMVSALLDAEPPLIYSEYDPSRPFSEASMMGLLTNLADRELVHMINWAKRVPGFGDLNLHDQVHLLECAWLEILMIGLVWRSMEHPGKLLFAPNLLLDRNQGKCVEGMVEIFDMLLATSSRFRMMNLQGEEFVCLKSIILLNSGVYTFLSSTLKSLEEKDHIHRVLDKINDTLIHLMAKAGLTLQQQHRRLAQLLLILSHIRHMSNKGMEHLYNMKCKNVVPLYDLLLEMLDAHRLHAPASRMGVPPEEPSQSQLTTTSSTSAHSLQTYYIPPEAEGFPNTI
Description: (§1) Briefly, cells were harvested in a binding buffer (10 mM Tris-HCl, 1 mM EDTA, 1 mM DTT; pH=7.2) containing 5 μg/ml protease inhibitors (aprotinin, leupeptin, phosphoramidon, PMSF, pepstatin), pelleted to remove cell media and then homogenized by mechanical disruption (polytron; speed 6 for 10 sec). Unlysed cells and debris were removed by centrifugation at 15,000×g for 15 min at 4° C. The resulting supernatant was homogenized and membranes were isolated by centrifugation at 100,000×g for 1 h at 4° C. The supernatant obtained following the high speed spin was labeled S2 (cytosol) while the pellet was labeled P2 (membranes). The pellet (P2) was resuspended using a glass homogenizer in 3 ml of 0.25 M sucrose in binding buffer. The sucrose gradient was layered in a 15 ml centrifuge tube starting with 41%, 25%, and 10% sucrose using J tubes. The P2 sample was added to the top and the remaining layer was capped with binding buffer. The tubes were centrifuged at 35,000×g for 1 h, placed in a fraction collector (bottom tube draw) and 500 μl samples were collected. Protein concentrations were determined with BCA reagent (Pierce). […] Statistical significance between IC50s and KDs was determined using a pair-wise Z-test. […]

mER receptor = test: Saturation binding / Scatchard analysis, D12 membrane (P2) fraction; parameters: species or system rat
Description: as §1

For `C[C@]12CC[C@@H]3c4ccc(O)cc4CC[C@H]3[C@@H]1C[C@@H]([125I])[C@@H]2O` [[^125I]-16α-iodo-3,17β-E2, [^125I]-16-α-iodo-3,17-βestradiol], the slope value (ERα receptor; S2 fraction) was 0.8, the Kd (ERα receptor; cytosolic (S2) binding) was 124 ± 17.1 pM and the Kd (mER receptor) was 118 ± 43.6 pM.
